Experiments:
THP-1 foam cells = test: Cholesterol efflux from THP-1 macrophage-derived foam cells; type: cell-based, human
Method: Human THP-1 macrophages (American Type Tissue Culture Collection, Camden, NJ) were grown as previously reported. Cells were plated at 2x10^5/ml 24 well-plates in RPMI1640 medium containing 10% fetal bovine serum (FBS), 50 μM β–mercaptoethanol, 50 μg/ml gentamicin, and maintained at 37°C in a humidified atmosphere of 5% CO2. THP-1 cells were differentiated into macrophages by the addition of 200 nM phorbol myristyl acetate (PMA) for 72h. Macrophages were incubated for 72h to become fully differentiated macrophages prior to experiment. […]
Human macrophages THP-1 cells were labelled with ^3H-cholesterol (5 μCi/ml) incorporated into AcLDL (100 μg/ml) in the presence of 1% FBS, 50 μM β-mercaptoethanol and 200 nM PMA, and incubated for 72h. […] Medium and cell associated ^3H-cholesterol were then measured by liquid scintillation counting. Cholesterol efflux was calculated according to the following equation as the percentage of ^3H-cpm medium / (^3H-cpm medium + ^3H-cpm cells) × 100%. […] Bands corresponding to ^3[H]-FC and ^3[H]-CE were located by exposure to iodine vapor, and were scraped off the plate into liquid scintillating vials and assayed for radioactivity.
Fig 2 Effect of CS-6253 treatment on cholesterol efflux. […] Cholesterol efflux from either ABCA1 cells or control cells to apo A-I (closed circles), and CS-6253 (closed triangles) was determined at the indicated time points. […]

[1] = system: BHK-ABCA1 plasma membrane microdomains; test: Cholesterol and phospholipid desorption from raft and non-raft domains of BHK-ABCA1 cells; type: cell-based, hamster; settings: 45 min
Method: Lipid labeling was performed as described previously with minor modifications. Briefly, BHK-cells were labeled with either 5 μCi/ml ^3[H] choline (Perkin-Elmer) for 48 h or 3 μCi/ml ^3[H] cholesterol (Perkin-Elmer) for 24 h, and then stimulated as described above. […] For each fraction, lipids were extracted by Folch and ^3[H]choline-labeled PtdCho, and SM were separated by TLC in the solvent system chloroform-methanol-water (65:35:4; v/v/v), and counted.
Supplementary file pone.0131997.s008.tif: S7 Fig CS-6253 desorbs phospholipids from raft and nonraft domains. […] After lipid extraction, ^3[H]cholesterol in each fraction was assessed for radioactivity. Radioactivity appearing in fractions corresponding to raft (1–5) and nonraft (6–10) material was pooled, and desorption of ^3[H]cholesterol and ^3[H]choline, from raft versus nonraft in the presence of apo A-I or CS-6253 was expressed as a percentage of control (100%, in the absence of acceptor) (S4 to S7 inset). […]
Sucrose density gradient fractionation was performed by ultracentrifugation (1,2). […] Ten fractions of 1ml were collected from top to bottom and analyzed for radioactivity, and lipid content ^3[H]-FC and ^3[H]-choline. […]

apolipoprotein A-I [apo A-I] was tested, and the “3H-FC removed from FC-enriched THP-1 cells” value (THP-1 foam cells; 0.96 μM acceptor, 24 h, vs control without acceptor, triplicate wells, mean ± SD) was 27.42±1.04%, the “proportion of FC mobilized away from the CE cycle” value (THP-1 foam cells; THP-1 foam cells, P<0.05) was 29% and the “cholesterol desorption from rafts and non-rafts” value [1] was 25%.

— publication PMC4514675, “Novel Apo E-Derived ABCA1 Agonist Peptide (CS-6253) Promotes Reverse Cholesterol Transport and Induces Formation of preβ-1 HDL In Vitro” (PLoS ONE, 2015)
